Results published in US20240108632A1, “PHARMACEUTICAL COMPOSITION FOR ADMINISTRATION AS OPHTHALMIC DROP TO PATIENT REQUIRING OPTIC NERVE PROTECTION” (PINOTBIO, INC., priority 2020, published 2024).
Converted amounts (≈) assume the structure as drawn. “And” between values parts separate entries of the source, which are not always exact repeats. Identical values can stand only once.

Tests used:
[1] = Solubility by HP-β-CD concentration at pH adjustment; assay type: physicochemical
Experimental: Various concentrations of HP-β-CD aqueous solutions were prepared by adding 1%, 2%, 3%, and 4% (w/v) of HP-β-CD to tertiary purified water (pH 5.5), pH 7.4 phosphate buffer, and 0.04 M NaOH aqueous solution (pH 12.5). An excess of KR-67607 was added to the above HP-β-CD solution and stirred for 24 hours, then the supernatant was collected and filtered through a 0.2 μm PVDF filter, and 1 mL was added to a 10 mL volumetric flask and labeled with methanol.
For the standard solution, 50 mg of KR-67607 was accurately weighed and placed in a 50 mL volumetric flask and completely dissolved/stained with methanol. 1, 2, 4, 6, 8, 10 mL of the standard solution was accurately taken and placed in a 20 mL volumetric flask, and the one labeled with methanol was used as the standard.

DBA/2 mice [2] = experiment: Intraocular pressure in ocular hypertensive glaucoma mouse model; assay type: in vivo; conditions: for IOP reduced compared to control group: week 16, 20 μl both eyes twice daily
Experimental: In this study, we evaluated the efficacy of KR-67607 in a mouse model of glaucoma using DBA/2 mice, which are congenitally predisposed to persistently elevated intraocular pressure (FIG. 9).
IOP was measured after the acclimatization period and then every 4 weeks. IOP was measured in respiratory anesthetized mice according to the manufacturer's instructions and the mean value presented after six measurements was recorded.

[3] = tested on: New Zealand White rabbit ocular hypertension model animals; experiment: IOP-lowering efficacy in rabbit ocular hypertension model (scleral vein ligation); assay type: in vivo
Experimental: This study was conducted in male New Zealand White rabbit ocular hypertension model animals (intraocular pressure ≥17 mmHg) induced by scleral vein ligation to determine the effectiveness of KR-67607 eye drops in reducing ocular hypertension after repeated twice daily ophthalmic administration for 11 days.
Sterile physiological saline (negative control), Xalatan, Timoptic, Trusopt, Xalacom, and KR-67607 eye drops were administered twice daily for 11 days, and mortality and general symptoms were monitored, body weight was measured, feed intake was measured, and intraocular pressure was measured.

GFAP, TNFα and BAX mRNA = experiment: RT-PCR of retinal tissue from ocular hypertension rabbits; assay type: in vivo, New Zealand White rabbit; conditions: after Example 33 dosing
Experimental: Following Example 33, in order to separate the sample (eyeball) to observe the glaucoma treatment effect on the drug in addition to the change in intraocular pressure caused by the drug administration, the eyeball was enucleated and about 0.2 mL of the aqueous humor was collected, and then the retina (including some choroid) was collected. The collected aqueous humor and retina were placed in 1.5 mL polypropylene tubes pre-marked with sample information, frozen in a deep freezer (approximately −80° C.) until analysis, and delivered to the test site for analysis.
RNA or proteins were extracted from the eyes and analyzed by RT-PCR and western blotting to compare the expression of genes and proteins that can confirm the glaucoma treatment effect or optic nerve protection effect.
RNA was extracted from the isolated retinal tissue and analyzed by RT-PCR to compare the expression of genes that can confirm the glaucoma treatment effect or retinal protection effect. The tissues were lysed using TrizolTM Reagent (Invitrogen, CA, US) to extract the soluble RNA, and the RNA was precipitated by adding isopropanol (100%; Sigma-aldrich, MO, US).
Subsequently, cDNA was synthesized from the isolated RNA using a cDNA synthesis kit (AccuPower RT Premix; Bioneer, KR) and used for RT-PCR. The primer information used for RT-PCR analysis is as follows.
The synthesized DNA strands were then analyzed after separation on a 1.5% agarose gel using gene-specific primers (FIG. 28).

[4] = tested on: cynomolgus macaque model of glaucoma; experiment: Intraocular pressure in cynomolgus macaque model of glaucoma (laser trabeculoplasty); assay type: in vivo; conditions: for maximum decrease of IOP, glaucomatous eye: 2 hours after instillation
Experimental: (§1) Three weeks before the first laser trabeculoplasty, IOP was measured via a tomometer (SPHPR-320-61), once per week for three weeks. The first laser trabeculoplasty was performed in one eye for each macaque. Two weeks later, laser trabeculoplasty was repeated in the same eye (Week 0).
(§2) One week after the second laser trabeculoplasty (Week 1), IOP was measured and retinal nerve fiber layer (RNFL) thickness was measured via optical coherence tomography (OCT; RS3000 Advance, Nidek Co. Ltd., Gamagoori, Japan) (SPHPR- 320-58). The day after group assignment, the eyes were instilled with either vehicle, KR-67607 or brimonidine twice a day. On Day 1, the effect of treatment on IOP over time was measured before treatment and 1, 2, 4, and 8 hrs. after instillation. At the same time, blood samples were obtained. From the effects of dosing observed on Day 1, it was determined that 2 hrs. was a reasonable time time-to-test following instillation for subsequent observations.
(§3) Intraocular pressures were obtained at Weeks 2, 3, 4, 5, 7 and 9. Optical coherence tomography and color fundus photography (CFP) were performed at Weeks 1, 3, 5, 7, and 9 (SPHPR-320-56).
Following measurements at Week 9, G3 macaques was randomized into two groups based on IOP, and the effect of KR-67607 (1.5 mg/mL, 3.0 mg/mL) on IOP was evaluated.

[5] = tested on: cynomolgus macaque model of glaucoma; experiment: Retinal nerve fiber layer thickness by OCT in cynomolgus macaque model of glaucoma; assay type: in vivo
Experimental: as §1, §2, §3

[6] = tested on: cynomolgus macaque model of glaucoma; experiment: Funduscopy in cynomolgus macaque model of glaucoma; assay type: in vivo
Experimental: as §1, §2, §3

DBA/2 mice [7] = experiment: Histology and immunostaining of retina and optic nerve head in glaucoma mouse model; conditions: after 16 weeks of drug treatment
Experimental: After drug administration was terminated, the mice's eyes were enucleated and tissues were analyzed (FIGS. 14 to 26).
The optic nerve papilla area was analyzed by H&E staining, Caspase-3, 9, and TUNEL staining in retinal tissue removed and fixed from eyes of mice after 16 weeks of drug treatment. […] To determine the degree of cell death in the damaged optic nerve papilla tissue, Caspase-3, 9 staining (FIGS. 15 and 16), an indicator of early apoptosis, and TUNEL staining (FIG. 17), an indicator of late apoptosis, were performed.

CC1CN(CC(=O)NC2C3CC4CC2CC(C(N)=O)(C4)C3)S(=O)(=O)N(c2c(Cl)cc(C(F)(F)F)cc2Cl)C1 [KR-67607, (1s, 3R,4s,5S,7s)-4-(2-(6-(2,6-dichloro-4-(trifluoromethyl)phenyl)-4-methyl-1,1-dioxido-1,2,6-thiadiazinan-2-yl)acetamido)adamantane-1-carboxamide]
Solubility by HP-β-CD concentration ([1]; HP-β-CD 1.0 % w/v, 0.04M NaOH aqueous solution (pH 12.5)): 3160 µg/mL (≈ 5.29 mM) | Solubility by HP-β-CD concentration ([1]; HP-β-CD 1.0 % w/v, phosphate buffer (pH 7.4)): 2590 µg/mL (≈ 4.33 mM) | Solubility by HP-β-CD concentration ([1]; HP-β-CD 1.0 % w/v, purified water (pH 5.5)): 2550 µg/mL (≈ 4.27 mM) | Solubility by HP-β-CD concentration ([1]; HP-β-CD 2.0 % w/v, 0.04M NaOH aqueous solution (pH 12.5)): 5720 µg/mL (≈ 9.57 mM) | Solubility by HP-β-CD concentration ([1]; HP-β-CD 2.0 % w/v, phosphate buffer (pH 7.4)): 4290 µg/mL (≈ 7.18 mM) | Solubility by HP-β-CD concentration ([1]; HP-β-CD 2.0 % w/v, purified water (pH 5.5)): 4230 µg/mL (≈ 7.08 mM) | Solubility by HP-β-CD concentration ([1]; HP-β-CD 3.0 % w/v, 0.04M NaOH aqueous solution (pH 12.5)): 7900 µg/mL (≈ 13.2 mM) | Solubility by HP-β-CD concentration ([1]; HP-β-CD 3.0 % w/v, phosphate buffer (pH 7.4)): 6000 µg/mL (≈ 10 mM) | Solubility by HP-β-CD concentration ([1]; HP-β-CD 3.0 % w/v, purified water (pH 5.5)): 6000 µg/mL (≈ 10 mM) | Solubility by HP-β-CD concentration ([1]; HP-β-CD 4.0 % w/v, 0.04M NaOH aqueous solution (pH 12.5)): 9610 µg/mL (≈ 16.1 mM) | Solubility by HP-β-CD concentration ([1]; HP-β-CD 4.0 % w/v, phosphate buffer (pH 7.4)): 6790 µg/mL (≈ 11.4 mM) | Solubility by HP-β-CD concentration ([1]; HP-β-CD 4.0 % w/v, purified water (pH 5.5)): 6910 µg/mL (≈ 11.6 mM) | week from which significant IOP reduction was seen (DBA/2 mice [2]; high dose KR-67607 (1.5 mg/ml)): 4 week | week from which IOP-lowering effects were observed (DBA/2 mice [2]; low-dose KR-67607 (0.75 mg/ml)): 12 week | IOP reduced compared to control group (DBA/2 mice [2]; high-dose KR-67607 (1.5 mg/ml)): 26% | IOP reduced compared to control group (DBA/2 mice [2]; low concentration KR-67607 (0.75 mg/ml)): 16% | IOP reduction greater than in the negative control group ([3]; Day 5): 34.4% | IOP reduction greater than in the negative control group ([3]; Day 8): 45.5% | IOP compared to 100% of pre-dose IOP ([3]; day 5, twice daily ophthalmic administration): 49.0% and 60.1% | greater IOP reduction than the Xalacom treatment group ([3]; day 8): 3.6% | mRNA expression level of BAX in retinal tissues (GFAP, TNFα and BAX mRNA): tended to decrease | mRNA expression level of GFAP in retinal tissues (GFAP, TNFα and BAX mRNA): tended to decrease | mRNA expression level of TNFa in retinal tissues (GFAP, TNFα and BAX mRNA): tended to decrease | maximum decrease of IOP, contralateral normal eye ([4]; Day 1 dosing, 2 hours after dosing): did not decrease | maximum decrease of IOP, glaucomatous eye ([4]; Day 1 dosing): 9.2±4.1 mmHg | effect on IOP (Extra dosing) ([4]; KR-67607 1.5 mg/mL, after Week 9): did not affect | maximum decrease of IOP (Extra dosing) ([4]; KR-67607 3.0 mg/mL, 1 hour after instillation): 12.0±2.8 mmHg | effect on trough IOP value ([4]; glaucomatous eyes, repeated treatment twice a day, brimonidine tartrate 0.1%, KR-67607 1.5 mg/mL): did not significantly affect | maximum decrease of IOP, normal eye ([4]; over weeks): did not decrease | maximum decrease of IOP, glaucomatous eye ([4]; over weeks): 10.4±2.2 mmHg | IOP-decreasing effect in glaucomatous eyes relative to brimonidine ([4]; summary): smaller than that of brimonidine | RNFL thickness compared with vehicle treatment ([5]; 5 weeks, unpaired t-test, p<0.05): greater | number of eyes with RNFL thickness greater than 50% compared to baseline ([5]; Week 9, 6 eyes per group): 3 | RNFL thinning in glaucomatous eyes ([5]; repeated treatment, compared to vehicle-treated (G1)): significantly inhibited | inhibitory effect on RNFL thinning relative to brimonidine ([5]; summary): greater than that of brimonidine | animals with small optic discs compared to G1 in the glaucomatous eyes ([6]; Week 5): four of six animals | animals with a small or lesser degree of cupping ([6]; Week 9): three animals | Brn3a expression in flat-mounted retinal tissue (DBA/2 mice [7]): relatively increased | GABAergic amacrine cells (DBA/2 mice [7]): relatively increased | GFAP expression (activated astrocytes) in optic nerve (DBA/2 mice [7]): less concentrated | GLT-1 expression in retina (DBA/2 mice [7]): no quantitative or qualitative difference | degree of retinal ganglion cell death (caspase-3 and 9) (DBA/2 mice [7]): relatively reduced | glaucomatous histologic features of optic nerve papilla (H&E: cupping, nerve fiber layer thinning) (DBA/2 mice [7]): alleviated | loss of retinal ganglion cells (H&E) (DBA/2 mice [7]): less loss | number of Iba-1 positive microglia (DBA/2 mice [7]): decreased | number of caspase-3, 9 expressing and TUNEL-positive cells in optic nerve papillae (DBA/2 mice [7]): significantly reduced
